Like-named read-outs stand apart in the source and are kept apart here.
Legend:
[1] = Solubility experiment in four systems; assay type: physicochemical
Description: According to the conventional solubility measurement, the solubility of the test samples were determined in four different systems: phosphate buffer solution (PBS, pH=7.4), methanol, 0.1% hydrochloric acid and water.

DPP-IV = biological target: T1, DPP-IV (Homo sapiens, UniProt P27487); test: DPP-IV inhibition, Promega DPPIV-Glo Protease Assay; assay type: biochemical
T1 construct: purchased Calbiochem 317630
Description: (§1) The compounds of the present invention were tested to determine their DPP-IV, DPP-VIII, DPP-IX inhibition activity according to the following methods. The half inhibition concentrations IC50 (the concentration of the test compound showing 50% inhibition to the enzyme activity) of each compound were determined by reaction test and calculation of the mixture of fixed amounts of enzyme and substrate with several different concentrations of the test compounds.
(§2) The compounds of the present invention were tested to determine the DPP-IV, DPP-VIII, DPP-IX inhibition activity in the following tests using Promega DPPIV-Glo™ Protease Assay (Cat No. G8350/G8351) Kit, wherein:
a. DPP-IV enzyme bought from Calbiochem, Catalog no. 317630;
(§3) The preparation procedure of the conventional reagent such as DPPIV-Glo buffer, luciferin reagents needed in the test and the detail operation of the test can refer to the specifications of the kits. The assay was carried out as following steps:
(§4) The tested compounds were dissolved in DMSO to prepare a series of different concentrations of the test compound solution. DPPIV-Glo buffer and the freezing luciferin detection reagent were equilibrated to room temperature. The luciferin detection reagent was dissolved in moderate buffer in a brown flask to form a solution. Then DPP-IV-Glo. was dissolved in ultrapure water to give the appropriate concentration. The substrate solution and the luciferin detection reagent solution were mixed sufficiently in an appropriate ratio (the ratio of the invention is 1:49), and the mixture was layed at room temperature for 30-60 minutes. Tris buffer (2 mM, pH 8.0), the test compounds and DPP-IV (DPP-VIII or DPP-IX) were mixed and then transferred to a 96-well plate. Each test contains double-well of three-well control. The same volume of DMSO was added to the negative control and blank control. Then the 96-well plate was added with mixed solution of luciferin detection reagent and substrate to initiate the reaction. The 96-wells plate was incubated at room temperature on a plate shaker for 40 minutes after sealed. The strength of the fluorescent signal in each well was determined by microplate reader and the inhibition rate to the enzyme of the compound at this concentration was calculated by the formula as following: inhibitory rate: IR=[1−(S−B)/(N−B)]*100% • S: value of the sample • B: value of the blank control • N: value of the negative control
(§5) IC50 of the test compounds can be calculated by the inhibition rate at different concentration.

DPP-VIII = biological target: T2, DPP-VIII (Homo sapiens, UniProt Q6V1X1); test: DPP-VIII inhibition, Promega DPPIV-Glo Protease Assay; assay type: biochemical; settings: read-out: IC50 DPP8
T2 construct: purchased Bioscience 80080
Description: as §1, §2
b. DPP-VIII enzyme bought from Bioscience, Catalog no. 80080;
as §3, §4, §5

DPP-IX = biological target: T3, DPP-IX (Homo sapiens, UniProt Q86TI2); test: DPP-IX inhibition, Promega DPPIV-Glo Protease Assay; assay type: biochemical; settings: read-out: IC50 DPP9
T3 construct: purchased Bioscience 80090
Description: as §1, §2
c. DPP-IX enzyme bought from Bioscience, Catalog no. 80090.
as §3, §4, §5

[2] = Pharmacokinetics assay in rats (LC/MS/MS plasma concentration); assay type: in vivo, SD rats; settings: for half-life / AUC(0-t) / CL/F / Cmax / MRT / Tmax / Vd/F: intragastric 3.0 mg/kg; for MRT: read-out: MRT; for Tmax: read-out: Tmax; for Vd/F: read-out: Vz/F; for F: intragastric 3.0 mg/kg (as free base), absolute bioavailability from AUC0-t vs vein injection
Excerpt: The compound of Example 3 was administrated intragastrically or tail vein injection to rats and the compounds of Example 1-4, Example 9 and Example 11-12 were administrated intragastrically to determine the drug concentration in plasma at different time points by LC/MS/MS measurement. The pharmacokinetics of the compounds of the present invention was studied and evaluated in rats. And the oral absolute bioavailability was investigated.
Compounds of Example 1-4, Example 9 and Example 11-12.
[…] healthy adult SD rats, male and female in half, were purchased from SINO-BRITSH SIPPR/BK LAB.ANIMAL LTD., CO, License number: SCXK (Shanghai) 2008-0016.
Vein injection group: the proper weighed test compound was dissolved in 0.5 mL of DMSO by ultrasound and then diluted with normal saline to 15 mL to form a 0.3 mg/mL solution.
Intragastrically administered group: the proper weighed test compound was dissolved in 0.5% CMC-Na by ultrasound to form a 0.3 mg/mL of suspension.
32 healthy adult SD rats, male and female in half, were divided into 8 groups so that each group consisted 4 rats. After an overnight fast, the rats were tail vein injected of the compound of Example 3 and intragastrically administered the compound of Example 3 and the salt thereof, at a dose of 3.0 mg/kg (calculated as the free base form) and a volume of 10 mL/kg.
Blood samples (0.2 mL) of the rats in vein injection group were taken from eye socket at pre administration and at 2, 15, 30 minutes and 1.0, 2.0, 4.0, 6.0, 8.0, 12.0, 24.0 hours post administration, which were stored in heparinized tubes and centrifuged for 10 minutes at 3,500 rpm. The plasma samples were stored at −20° C. until analysis. The rats were fed 2 hours after administration.
Blood samples of the rats in intragastrically administered group were taken at pre administration and at 0.5, 1.0, 2.0, 3.0, 4.0, 6.0, 8.0, 12.0, 24.0 hours post administration. The samples were treated with the same method as mentioned above.
50 μL of internal standard solution and 150 μL of methanol were added to 50 μL of rat plasma obtained at various time points after administration. Then the mixture was mixed for 3 minutes using a vortexer and centrifuged for 10 minutes at 13,500 rpm. 10 μL of the supernatant was analyzed by LC/MS/MS.
The compartmental model of pharmacokinetics was fitted for the test compounds and the major pharmacokinetic parameters were calculated by DAS 2.0 software in which Cmax and tmax were the actually measured values. The absolute bioavailability was calculated by AUC0-t taken from post administration and vein injection.

normal ICR mice = test: Hypoglycemic effect, oral glucose tolerance in normal ICR mice; assay type: in vivo; settings: 10 mg/kg by gavage, glucose 4 g/kg 15 minutes after administration
Description: To observe the effects on oral glucose tolerance of the compounds of Example 1-4 and Example 8-12 in normal ICR mice (SINO-BRITSH SIPPR/BK LAB.ANIMAL LTD., CO), the hypoglycemic effects in vivo have been evaluated using blood-glucose meter to measure and analyze the sugar content of the samples at different time points during 2 hours. The samples were taken from the mouse's tail.
The administration dose was 10 mg/kg, and the blank was administered with water. Both groups contained 5% DMSO.
The mice were administered by gavage. 4 g/kg of 10% glucose solution was administered (0.8 mL to each mice) 15 minutes after administration.
The mice were administered according to above dose (the blank group was administrated with 5% DMSO aqueous solution) and the blood sugar value was measured (−15 minutes).
15 minutes after administration, the mice were administered of 4 g/kg of 20% glucose solution and the values of blood sugar were tested by Roche ACCU-CHEK at 0, 15, 30, 45, 60, 120 minutes.

[3] = 0.1% hydrochloric acid, simulated gastric fluid, 0.1% hydrochloric acid, read-out: Solubility Value, 0.1% HCl
[4] = methanol, organic solvent or mixture, methanol, read-out: Solubility Value, methanol
[5] = phosphate buffer solution (PBS), pH 7.4, aqueous buffer, PBS pH 7.4, read-out: Solubility Value, PBS (pH 7.4)
[6] = water, read-out: Solubility Value, water
[7] = both sexes, SD, rat, plasma, po, 3 mg/kg
[8] = both sexes, SD, rat, plasma, po, 3 mg/kg, read-out: AUC0-t
[9] = both sexes, SD, rat, plasma, po, 3 mg/kg, read-out: CL/F (converted)
[10] = both sexes, SD, rat, plasma, po, 3 mg/kg, read-out: Cmax

T3 sequence (Q86TI2 whole entry): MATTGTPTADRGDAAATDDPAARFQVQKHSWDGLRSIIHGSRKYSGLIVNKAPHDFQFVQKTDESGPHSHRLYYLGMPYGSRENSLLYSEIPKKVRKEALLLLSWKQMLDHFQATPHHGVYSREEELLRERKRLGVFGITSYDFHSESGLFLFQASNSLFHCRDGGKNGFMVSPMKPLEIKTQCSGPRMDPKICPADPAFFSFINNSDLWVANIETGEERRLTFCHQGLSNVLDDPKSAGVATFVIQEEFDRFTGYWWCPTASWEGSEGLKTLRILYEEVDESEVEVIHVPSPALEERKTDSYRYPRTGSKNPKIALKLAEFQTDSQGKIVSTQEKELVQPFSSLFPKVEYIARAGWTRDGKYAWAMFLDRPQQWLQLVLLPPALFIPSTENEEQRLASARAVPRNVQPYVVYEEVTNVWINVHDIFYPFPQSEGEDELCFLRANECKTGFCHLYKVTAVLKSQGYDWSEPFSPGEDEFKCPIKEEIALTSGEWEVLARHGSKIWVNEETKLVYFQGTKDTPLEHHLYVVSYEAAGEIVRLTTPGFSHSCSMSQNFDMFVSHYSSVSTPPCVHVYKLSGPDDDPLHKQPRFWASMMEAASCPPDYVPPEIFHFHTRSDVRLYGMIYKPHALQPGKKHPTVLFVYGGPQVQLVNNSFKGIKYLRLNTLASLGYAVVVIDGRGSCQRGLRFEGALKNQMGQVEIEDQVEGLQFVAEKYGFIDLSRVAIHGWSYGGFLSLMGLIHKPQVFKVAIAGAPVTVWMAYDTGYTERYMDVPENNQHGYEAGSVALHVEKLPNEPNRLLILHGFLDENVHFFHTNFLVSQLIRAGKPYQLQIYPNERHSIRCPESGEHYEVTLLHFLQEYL
T2 sequence (Q6V1X1 whole entry): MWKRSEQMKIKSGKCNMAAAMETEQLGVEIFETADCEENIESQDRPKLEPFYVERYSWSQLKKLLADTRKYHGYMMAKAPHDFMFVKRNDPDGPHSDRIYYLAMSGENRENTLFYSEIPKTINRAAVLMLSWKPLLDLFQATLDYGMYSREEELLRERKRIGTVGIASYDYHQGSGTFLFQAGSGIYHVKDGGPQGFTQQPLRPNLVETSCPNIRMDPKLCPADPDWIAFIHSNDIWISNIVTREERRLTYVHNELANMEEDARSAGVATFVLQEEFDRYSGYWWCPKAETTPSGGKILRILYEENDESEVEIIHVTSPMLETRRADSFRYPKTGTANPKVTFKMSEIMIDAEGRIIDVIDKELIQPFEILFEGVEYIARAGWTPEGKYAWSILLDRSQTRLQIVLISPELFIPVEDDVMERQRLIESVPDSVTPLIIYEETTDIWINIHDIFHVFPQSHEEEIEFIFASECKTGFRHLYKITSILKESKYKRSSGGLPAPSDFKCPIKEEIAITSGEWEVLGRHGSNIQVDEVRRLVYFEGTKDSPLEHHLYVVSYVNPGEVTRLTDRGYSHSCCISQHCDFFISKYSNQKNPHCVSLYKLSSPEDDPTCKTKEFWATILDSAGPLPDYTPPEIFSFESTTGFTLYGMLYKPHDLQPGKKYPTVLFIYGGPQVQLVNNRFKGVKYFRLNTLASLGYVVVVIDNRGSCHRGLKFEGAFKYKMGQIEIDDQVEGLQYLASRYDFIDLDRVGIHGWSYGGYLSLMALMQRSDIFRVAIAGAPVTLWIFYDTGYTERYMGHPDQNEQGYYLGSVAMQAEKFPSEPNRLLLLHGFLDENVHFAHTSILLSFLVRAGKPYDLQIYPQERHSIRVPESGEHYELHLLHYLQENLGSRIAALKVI
T1 sequence (P27487 whole entry): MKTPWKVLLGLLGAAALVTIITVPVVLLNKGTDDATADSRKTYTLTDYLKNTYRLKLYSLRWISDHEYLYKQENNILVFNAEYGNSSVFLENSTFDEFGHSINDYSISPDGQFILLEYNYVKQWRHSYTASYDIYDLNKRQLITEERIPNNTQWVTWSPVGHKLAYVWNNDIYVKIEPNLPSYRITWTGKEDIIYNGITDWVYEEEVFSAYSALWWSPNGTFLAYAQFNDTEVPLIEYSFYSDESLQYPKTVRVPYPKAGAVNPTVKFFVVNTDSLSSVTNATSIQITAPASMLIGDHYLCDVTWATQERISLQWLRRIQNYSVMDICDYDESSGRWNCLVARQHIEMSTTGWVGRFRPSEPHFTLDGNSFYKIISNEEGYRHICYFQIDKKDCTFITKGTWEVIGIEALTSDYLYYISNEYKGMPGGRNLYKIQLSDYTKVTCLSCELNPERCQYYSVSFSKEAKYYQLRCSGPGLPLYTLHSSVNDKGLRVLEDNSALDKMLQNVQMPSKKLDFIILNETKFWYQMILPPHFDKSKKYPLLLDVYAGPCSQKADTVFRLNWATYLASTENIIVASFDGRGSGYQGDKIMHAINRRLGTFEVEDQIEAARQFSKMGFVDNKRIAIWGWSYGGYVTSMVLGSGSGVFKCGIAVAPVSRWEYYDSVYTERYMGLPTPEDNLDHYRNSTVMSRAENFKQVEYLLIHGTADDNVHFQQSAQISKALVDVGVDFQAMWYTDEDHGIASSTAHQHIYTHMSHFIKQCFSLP

Row | SMILES | solubility [1, 3] [mg/mL] | solubility [1, 4] [mg/mL] | solubility [1, 5] [mg/mL] | solubility [1, 6] [mg/mL] | IC50 (DPP-IV) [µM] | IC50 (DPP-VIII) [µM] | IC50 (DPP-IX) [µM] | half-life [2, 7] [h] | AUC(0-t) [2, 8] [µg·h/mL] | CL/F [2, 9] [L/h/kg] | Cmax [2, 10] [µg/mL] | MRT [2, 7] [h] | Tmax [2, 7] [h] | Vd/F [2, 7] [L/kg] | F [2] [%] | Hypoglycemic rate of blood sugar of 30 minutes after administration (normal ICR mice) [%] | further results
1 | N[C@@H](CC(=O)N1CCn2c(C(F)(F)F)nc(C(=O)[O-])c2C1)Cc1cc(F)c(F)cc1F.[Na+] [Example 4, Sodium (R)-7-[3-amino-4-(2,4,5-trifluorophenyl)butanoyl]-3-trifluoromethyl-5,6,7,8-tetrahydro-imidazo[1,5-a]pyrazine-1-carboxylate] | 94.8 | 46.7 | 57.4 | 43.5 | 0.022 | 77.3 | 42.3 | 2.65 ± 0.94 | 0.0666 ± 0.0106 | 43.7 | 0.0142 ± 0.002 | 4.3 ± 0.6 | 1.75 ± 0.96 | 164 ± 56 | 2.90 | 9.49 | –
2 | N[C@@H](CC(=O)N1CCn2c(C(F)(F)F)nc(C(=O)O)c2C1)Cc1cc(F)c(F)cc1F [Example 9, 2-Hydroxyethylammonium (R)-7-[3-amino-4-(2,4,5-trifluorophenyl)butanoyl]-3-trifluoromethyl-5,6,7,8-tetrahydro-imidazo[1,5-a]pyrazine-1-carboxylate] | – | – | – | – | 0.012 | 114 | 128 | 3.18 ± 0.71 | – | – | – | 4.34 ± 0.66 | 1.25 ± 0.5 | – | 4.06 | – | Solubility Value, 0.1% HCl ([1]; 0.1% hydrochloric acid): 12.6 mg/mL; Solubility Value, PBS (pH 7.4) ([1]; PBS pH 7.4): 0.3 mg/mL; Solubility Value, methanol ([1]; methanol): 35.2 mg/mL; Solubility Value, water ([1]; water): 1.0 mg/mL; AUC(0-t) [2]: 0.0932 ± 0.0364 µg·h/mL; CL/F [2]: 32.9 ± 10.0 L/h/kg; Cmax [2]: 0.0251 ± 0.0139 µg/mL; Hypoglycemic rate of blood sugar of 30 minutes after administration (normal ICR mice; 10 mg/kg): 27.56%
3 | N[C@@H](CC(=O)N1CCn2c(C(F)(F)F)nc(C(=O)O)c2C1)Cc1cc(F)c(F)cc1F.O=C(O)C[C@H](O)C(=O)O [Example 11, (R)-7-[3-Amino-4-(2,4,5-trifluorophenyl)butanoyl]-3-trifluoromethyl-5,6,7,8-tetrahydro-imidazo[1,5-a]pyrazine-1-carboxylic acid (2S)-2-hydroxybutanedioic acid] | 32.6 | 5.4 | 19.5 | 22.2 | 0.009 | 280 | 180 | 2.21 ± 0.69 | 0.0695 ± 0.0252 | 46.6 | 0.0135 ± 0.0039 | 4.5 ± 1.32 | 1.63 ± 1.11 | 140 ± 39 | 3.03 | 20.18 | –
4 | N[C@@H](CC(=O)N1CCn2c(C(F)(F)F)nc(C(=O)O)c2C1)Cc1cc(F)c(F)cc1F.O=C(O)C(O)C(O)C(=O)O [Example 12, (R)-7-[3-Amino-4-(2,4,5-trifluorophenyl)butanoyl]-3-trifluoromethyl-5,6,7,8-tetrahydro-imidazo[1,5-a]pyrazine-1-carboxylic acid (2S,3S)-2,3-dihydroxybutanedioic acid] | 33.8 | 0.5 | 12.3 | 19.5 | 0.012 | 244 | 135 | 2.54 ± 0.86 | 0.0746 ± 0.0217 | 40.3 | 0.017 ± 0.0069 | 4.23 ± 0.84 | 1.75 ± 0.5 | 154 ± 77 | 3.25 | 24.11 | –
